Article PMC8424644, “Thermodynamic Stability and Speciation of Ga(III) and Zr(IV) Complexes with High-Denticity Hydroxamate Chelators” (Inorganic Chemistry, 2021)
Marks after values point to notes of the source that are not given here.

Assays:
Format in all cases: physicochemical
[1] = Fe(III) complex stability, pH-dependent UV–vis titrations
Source text: To evaluate the thermodynamic stability of Ga(III) and Zr(IV) complexes of the investigated ligands, the binding properties and speciation of Fe(III) complexes have first been determined (all the details are given in the Supporting Information). There are several reasons for this protocol. First, (i) the electron configuration of Ga(III) (d^10) and Zr(IV) (d^0) hinders the attainment of spectral information for most of the complexes. Furthermore, (ii) both metal ions are highly acidic and they are readily hydrolyzed over almost the entire pH range. In addition, (iii) the high charge to size ratio of the Zr(IV) ion implies the formation of complexes with an exceptional thermodynamic stability (already at very low pH); as a consequence, the stability constants cannot be directly determined using standard potentiometric titrations. Thus, the thermodynamic stability constants of the Fe(III)-H3L1 and Fe(III)-H4L2 systems were first determined (using a combination of potentiometric and pH-dependent UV–vis titrations), followed by Fe(III)–Ga(III) and Fe(III)–Zr(IV) metal–metal competition experiments. […]

[2] = pZr calculation (ligand sequestering ability); conditions: for pZr: pZr = −log[Zr(IV)free], pH 7.4, cL = 10 μM, cZr(IV) = 1 μM
Source text: Despite a large variety of PET chelators synthesized and tested in order to provide strong coordination of Ga(III) and Zr(IV) in vivo, until now it is has been hard to avoid the release of these metal ions in the body. Here we report two new Ga(III) and Zr(IV) hydroxamate chelators, designed to achieve an efficient sequestering of these metal ions but also to understand how the cyclization and the introduction of an additional hydroxamate group influences the stability of Zr(IV) complexes. Therefore, it is important to evaluate and compare the Ga(III)- and Zr(IV)-sequestering abilities of H3L1 and H4L2 with those of other chelators. However, the direct comparison of the stability constants of metal complexes is not straightforward, and other tools taking into account all the physicochemical properties of the ligands, i.e. their denticity, coordination modes, and acid–base properties, should be used.[52] In order to reliably compare the chelating abilities of H3L1 and H4L2 toward Ga(III) and Zr(IV) ions, the pM values were calculated. pFe was originally introduced by Raymond for the comparison of iron-siderophore systems;[53] pGa = −log[Ga(III)free] and pZr = −log[Zr(IV)free] were calculated at pH 7.4 with cL = 10 μM and cGa(III)/Zr(IV) = 1 μM (Table 2).

[3] = pFe calculation (ligand sequestering ability); conditions: pH=7.4, cL=10 μM, metal 1 μM
Source text: Despite a large variety of PET chelators synthesized and tested in order to provide strong coordination of Ga(III) and Zr(IV) in vivo, until now it is has been hard to avoid the release of these metal ions in the body. Here we report two new Ga(III) and Zr(IV) hydroxamate chelators, designed to achieve an efficient sequestering of these metal ions but also to understand how the cyclization and the introduction of an additional hydroxamate group influences the stability of Zr(IV) complexes. Therefore, it is important to evaluate and compare the Ga(III)- and Zr(IV)-sequestering abilities of […] and […] with those of other chelators. […] page 15: 100 100 [ZrL4]+ [ZrL3]+ [ZrL4H ] -1 80 [ZrL3H ] 80 2+ -1 [ZrHL4] […] Experimental section. Ligands' sequestering ability Table S3. pFe values with various synthetic and biological chelators a Ligand pFe Chelating groups and ligands geometry […] 24.3 3 hydroxamate groups in a cyclic arrangement […] 23.3 4 hydroxamate groups in a linear arrangement […] 26.9 3 hydroxamate groups in a cyclic arrangement […] 23.61 3 hydroxamate groups in a linear arrangement […] DFOE 27.73 3 hydroxamate groups in a cyclic arrangement […] protonation and stability constants given in original publications; the hydrolysis constants of Fe(III) ions were taken from the literature14 and are given in the experimental section 15 (also on this page, place not known: […]

| pK of [FeHL] ([FeHL1]+ to [FeL1]) ([1]; from UV–vis log β values (supplement)) | pZr [2] | pFe [3] | log β [FeHL] ([1]; pH-dependent UV–vis titrations, 25 °C, I = 0.1 M NaClO4) | pZr higher than the values for Zr(IV)-DFOB and Zr(IV)-H3L1 [2] [units] | Structure (SMILES) |
| --- | --- | --- | --- | --- | --- |
| 3.21 | 32.4 | 24.3 | – | – | O=C1CCCN(O)C(=O)CCCNC(=O)CCCN(O)C(=O)CCCNC(=O)CCCN(O)C(=O)CCCN1 [H3L1, 1,11,21-Trihydroxy-1,6,11,16,21,26-hexaazacyclotriacontane-2,7,12,17,22,27-hexaone] |
| – | 37.0 | 23.3 | 36.96(7) ^e | > 4 | N[C@H]1CCCCNC(=O)CCCN(O)C(=O)CCCNC(=O)CCCN(O)C(=O)CCCNC(=O)CCCN(O)C(=O)CCCNC(=O)CCCN(O)C(=O)CCCNC1=O [H4L2, (S)-43-Amino-6,16,26,36-tetrahydroxy-1,6,11,16,21,26,31,36,41-nonaazacycloheptatetracontane-2,7,12,17,22,27,32,37,42-nonaone] |
